Conditions: Liquid, Vibrating tube method

CCCCCCCCCC [decane]
mass density [kg/m3]
Conditions	283.15 K	293.14 K
635 kPa	–	730.3
660 kPa	–	730.5
720 kPa	–	730.4
803 kPa	–	730.5
26776 kPa	755.1	–
26808 kPa	755.2	–
26844 kPa	755.1	–
26869 kPa	755.2	–
26895 kPa	755.3	–
26931 kPa	755.3	–
26952 kPa	755.2	–
26974 kPa	755.3	–
27007 kPa	755.3	–
27036 kPa	755.3	–
27058 kPa	755.3	–
27090 kPa	755.5	–
27112 kPa	755.3	–
27145 kPa	755.4	–
27171 kPa	755.4	–
27193 kPa	755.5	–
27219 kPa	755.3	–
27242 kPa	755.5	–
27268 kPa	755.6	–
27295 kPa	755.5	–
27321 kPa	755.4	–
27347 kPa	755.6	–
27373 kPa	755.5	–
27611 kPa	755.7	–
27638 kPa	755.7	–
27665 kPa	755.8	–
27700 kPa	755.7	–
27726 kPa	755.8	–
27749 kPa	755.7	–
27784 kPa	755.8	–
27818 kPa	755.8	–
27842 kPa	755.9	–
27876 kPa	755.9	–
27908 kPa	755.9	–
27935 kPa	755.9	–
27963 kPa	755.9	–
27990 kPa	755.9	–
28021 kPa	755.9	–
28049 kPa	755.9	–
28076 kPa	756	–
28113 kPa	756	–
28134 kPa	756	–
28171 kPa	756	–
28206 kPa	756	–
28227 kPa	756	–
28251 kPa	756.1	–
28288 kPa	756.1	–
28322 kPa	756.2	–
28344 kPa	756.1	–
28377 kPa	756	–
28409 kPa	756.2	–
28431 kPa	756.3	–
28463 kPa	756.1	–
28486 kPa	756.2	–
28515 kPa	756.3	–
28541 kPa	756.2	–
28571 kPa	756.3	–
28597 kPa	756.3	–
28616 kPa	756.2	–
28645 kPa	756.3	–
28678 kPa	756.4	–
28701 kPa	756.3	–
28728 kPa	756.4	–
28766 kPa	756.4	–
28792 kPa	756.5	–
28822 kPa	756.4	–
28845 kPa	756.5	–
28872 kPa	756.5	–
28899 kPa	756.5	–
28925 kPa	756.5	–
28952 kPa	756.4	–
28987 kPa	756.5	–
29014 kPa	756.5	–
29040 kPa	756.5	–
29067 kPa	756.5	–
29114 kPa	756.7	–
29141 kPa	756.6	–
29203 kPa	756.7	–
29251 kPa	756.7	–
29278 kPa	756.6	–
29309 kPa	756.6	–
29341 kPa	756.7	–
29368 kPa	756.7	–
29392 kPa	756.6	–
29424 kPa	756.7	–
29460 kPa	756.7	–
29484 kPa	756.8	–
29508 kPa	756.7	–
29555 kPa	756.8	–
29591 kPa	756.8	–
29652 kPa	756.9	–
29688 kPa	757	–
30170 kPa	757.2	–
30200 kPa	757.3	–
30225 kPa	757.3	–
30263 kPa	757.3	–
30301 kPa	757.1	–
30327 kPa	757.2	–
30365 kPa	757.4	–
30399 kPa	757.3	–
30425 kPa	757.3	–
30461 kPa	757.4	–
30487 kPa	757.4	–
30512 kPa	757.4	–
30539 kPa	757.4	–
30561 kPa	757.4	–
30603 kPa	757.4	–
30638 kPa	757.4	–
30664 kPa	757.4	–
30704 kPa	757.5	–
30740 kPa	757.4	–
30771 kPa	757.5	–
30836 kPa	757.5	–
30867 kPa	757.5	–
30893 kPa	757.6	–
30975 kPa	757.6	–
31003 kPa	757.6	–
31031 kPa	757.7	–
31062 kPa	757.8	–
31099 kPa	757.6	–
31136 kPa	757.6	–
31162 kPa	757.7	–
31187 kPa	757.9	–
31218 kPa	757.7	–
31253 kPa	757.8	–
31284 kPa	757.9	–
31310 kPa	757.9	–
31337 kPa	757.9	–
31363 kPa	757.8	–
31377 kPa	757.9	–
31402 kPa	757.9	–
31424 kPa	758	–
31441 kPa	758	–
31463 kPa	758	–
31492 kPa	758	–
31509 kPa	758	–
31566 kPa	757.9	–
31598 kPa	758	–
31615 kPa	758	–
31631 kPa	758	–
31657 kPa	758.2	–
31680 kPa	758	–
31697 kPa	758.1	–
31724 kPa	758.2	–
31749 kPa	758.2	–
31769 kPa	758.1	–
31794 kPa	758.1	–
31815 kPa	758.3	–
31835 kPa	758.2	–
31855 kPa	758.3	–
31878 kPa	758.3	–
32055 kPa	758.2	–
32091 kPa	758.2	–
32141 kPa	758.3	–
32209 kPa	758.4	–
32230 kPa	758.4	–
32248 kPa	758.4	–
32268 kPa	758.5	–
32289 kPa	758.5	–
32312 kPa	758.4	–
32330 kPa	758.4	–
32357 kPa	758.5	–
32378 kPa	758.5	–
32405 kPa	758.4	–
32427 kPa	758.6	–
32445 kPa	758.5	–
32465 kPa	758.5	–
32490 kPa	758.6	–
32511 kPa	758.4	–
32535 kPa	758.6	–
32559 kPa	758.5	–
32597 kPa	758.6	–
32618 kPa	758.6	–
32636 kPa	758.6	–
32655 kPa	758.6	–
32682 kPa	758.7	–
32708 kPa	758.8	–
32727 kPa	758.6	–
32746 kPa	758.7	–
32767 kPa	758.6	–
32793 kPa	758.6	–
32811 kPa	758.7	–
32827 kPa	758.8	–
32850 kPa	758.7	–
32869 kPa	758.7	–
32894 kPa	758.7	–
32922 kPa	758.8	–
32944 kPa	758.8	–
32966 kPa	758.7	–
32989 kPa	758.9	–
33018 kPa	758.8	–
33037 kPa	758.9	–
33062 kPa	758.7	–
33085 kPa	758.9	–
33107 kPa	758.9	–
33133 kPa	759	–
33155 kPa	758.9	–
33178 kPa	759	–
33200 kPa	759.1	–
33220 kPa	759	–
33249 kPa	759	–
33275 kPa	759	–
33295 kPa	759	–
33544 kPa	759.2	–
33573 kPa	759.1	–
33592 kPa	759.1	–
33621 kPa	759.2	–
33651 kPa	759.1	–
33667 kPa	759.3	–
33690 kPa	759.3	–
33707 kPa	759.1	–
33737 kPa	759.2	–
33761 kPa	759.3	–
33781 kPa	759.2	–
33805 kPa	759.2	–
33822 kPa	759.3	–
33852 kPa	759.2	–
33873 kPa	759.3	–
33897 kPa	759.2	–
33922 kPa	759.3	–
33943 kPa	759.4	–
33964 kPa	759.4	–
33982 kPa	759.3	–
34002 kPa	759.4	–
34022 kPa	759.4	–
34045 kPa	759.4	–
34063 kPa	759.5	–
34081 kPa	759.3	–
34104 kPa	759.4	–
34127 kPa	759.6	–
34148 kPa	759.4	–
34169 kPa	759.4	–
34195 kPa	759.5	–
34214 kPa	759.5	–
34237 kPa	759.6	–
34264 kPa	759.5	–
34311 kPa	759.6	–
34330 kPa	–	753.1
34339 kPa	759.5	–
34351 kPa	–	753.1
34359 kPa	759.6	–
34380 kPa	–	753.2
34400 kPa	–	753.1
34412 kPa	–	753.3
34420 kPa	–	753.2
34428 kPa	–	753.1
34437 kPa	–	753.2
34447 kPa	759.6	–
34451 kPa	–	753.2
34459 kPa	–	753.2
34471 kPa	–	753.2
34478 kPa	759.7	–
34481 kPa	–	753.1
34490 kPa	759.6	–
34491 kPa	–	753.1
34504 kPa	759.7	753.2
34514 kPa	759.7	–
34517 kPa	–	753.2
34527 kPa	–	753.2
34530 kPa	759.6	–
34537 kPa	–	753.3
34543 kPa	–	753.2
34544 kPa	759.7	–
34545 kPa	–	753.3
34551 kPa	759.7	–
34558 kPa	759.6	–
34561 kPa	759.7	–
34564 kPa	759.8	–
34567 kPa	759.6	–
